Test results: patent publication US5153173A, “N-acyl derivatives of the peptidoglycan monomer, pharmaceutically acceptable salts thereof, their preparation and use as immunomodulators and immunoadjuvants” (Pliva Farmaceutska, priority 1990, dated 1992)
Where “and” joins values, the source holds several entries; their conditions need not be identical. Equal entries are not always repeated.

What was measured:
spleen lymphocytes = assay: Number of spleen lymphocytes of CBA mice after a single i.v. dose; type: in vivo, CBA male mice; set-up: No spleen cells: unit not given beside the values; settings: for No spleen cells, % (control = 100) / No spleen cells: CBA male mice, single i.v. dose 200 μg/mouse; for No spleen cells, % (control = 100): relative to control of the same experiment; for reduction of the number of spleen lymphocytes in comparison to the control values / increase of the number of the spleen lymphocytes: absolute number in 1 mL; for reduction of the number of spleen lymphocytes in comparison to the control values / effect upon the number of spleen lymphocytes / increase of the number of the spleen lymphocytes: CBA mice, i.v. 200 μg/mouse; for No spleen cells: absolute number of spleen lymphocytes in 1 ml, value ± spread
Experimental: (§1) The biological activity of the claimed compounds was tested on CBA male mice, 2-2.5 months old. The animals had been adapting to the laboratory conditions at least one week prior to each testing. The effectiveness of the N-acyl derivative of PGM was compared with the results achieved in control mice goups which were administered a physiological solution (negative control) and the original PGM (positive control). All tested substances were administered to the organism by intravenous (i.v.) route in a single dose of 200 μg/mouse and 10 mg/kg resp. The following effects of the immunopharmacological activity were surveyed: spleen weight, number of lymphocytes and number of PFC (plaque forming cells) according to the method of Jerne (in: Cell Bound Antibodies, Whister Institute Press, Philadelphia (1963), p.109). The spleen weight is expressed in mg. The number of the spleen lymphocytes is expressed as the absolute number in 1 ml, whereas the PFC are expressed by way of their total number and by their activity 10^6 spleen lymphocytes. The test groups and the corresponding control groups resp. comprised each 5-7 mice. The activity of each N-acyl derivative of PGM was examined at least three times in various periods. The statistical analysis was performed with the parametric Student t-test, applying the original computer programme Stat Works. The significance of the differences was assessed by two-tailed test at the level of acceptance equal or less than 5%. The summarized results of the effects of individual N-acyl derivatives on the parameters of immune response are listed in Table 1.

[1] = Spleen weight of CBA mice after a single i.v. dose; type: in vivo, CBA male mice; settings: for Spleen weight, % (control = 100) / Spleen weight: CBA male mice, single i.v. dose 200 μg/mouse (10 mg/kg); for Spleen weight, % (control = 100): relative to control of the same experiment; for Spleen weight: value ± spread; for change in the spleen weight: differences to control not significant, tendency of improved activity; for increase in the spleen weight in comparison to the control values: statistically significant, CBA mice, i.v. 200 μg/mouse
Experimental: as §1

[2] = tested on: PFC (plaque forming cells); assay: Number of PFC (plaque forming cells), method of Jerne, in CBA mice; type: in vivo, CBA male mice; settings: for Abs. PFC, % (control = 100) / PFC/l mil, % (control = 100) / PFC/l mil / Abs. PFC: CBA male mice, single i.v. dose 200 μg/mouse; for Abs. PFC, % (control = 100) / PFC/l mil, % (control = 100): relative to control of the same experiment; for PFC/l mil: PFC per 10^6 spleen lymphocytes; for PFC/l mil / Abs. PFC: value ± spread; for PFC activity with respect to the number of the spleen lymphocytes, significance / increase of PFC / overall PFC activity, significance (words): Student t-test versus control; for Abs. PFC: total number of PFC
Experimental: as §1

immune response = assay: Overall immunopharmacological activity (cellular and humoral immunity) in CBA mice; type: in vivo, CBA male mice; settings: for effect on the cellular immune response / involvement in the humoral immunity: conclusion from Table 1
Experimental: as §1

[3] = cited from earlier work
[4] = Eur. J. Cancer Oncol. 19 (1983); Cancer Immunol. Immunother. 15 (1983), 18 (1984); cited from earlier work
[5] = Z. Immun.-Forsch. 155 (1979), 312-328; cited from earlier work

| Compound | No spleen cells, % (control = 100) (spleen lymphocytes) | reduction of the number of spleen lymphocytes in comparison to the control values (spleen lymphocytes) | No spleen cells (spleen lymphocytes) | Spleen weight, % (control = 100) [1] | Spleen weight [1] | change in the spleen weight [1] | Abs. PFC, % (control = 100) [2] | PFC/l mil, % (control = 100) [2] | PFC/l mil [2] | PFC activity with respect to the number of the spleen lymphocytes, significance [2] | Abs. PFC [2] | other results |
| --- | --- | --- | --- | --- | --- | --- | --- | --- | --- | --- | --- | --- |
| Na-salt of N-lauroyl-PGM [Lauroyl PGM] | 79% | 20% | 45.2 ± 8.50 | 112% | 135.5 ± 22.60 mg | relative increase | 162% | 155% | 254.2 | statistically significant difference | 125.4 ± 68.45 | increase of PFC / overall PFC activity, significance (words) ([2]; listed as N-lauroyl): statistically significant difference; increase of PFC / overall PFC activity, significance (words) ([2]; listed as lauroyl): significant effect; activity in comparison with the original PGM (immune response; administered in the same concentration): superior activity; effect on the cellular immune response (immune response): significant effect; involvement in the humoral immunity (immune response): more significantly involved |
| sodium salt of N-stearoyl-PGM [Stearoyl PGM] | 100% | – | 37.8 ± 6.90 | 113% | 123.6 ± 18.63 mg | – | 126% | 118% | 219.2 ± 67.11 | – | 93.4 ± 37.55 | effect upon the number of spleen lymphocytes (spleen lymphocytes): no effect; increase in the spleen weight in comparison to the control values [1]: 13% |
| sodium salt of N-oleoyl-PGM [Oleoyl PGM] | 103% | – | 42.3 ± 7.96 | 121% | 131.7 ± 14.40 mg | – | 113% | 109% | 210.8 ± 88.40 | – | 97.1 ± 41.86 | increase of the number of the spleen lymphocytes (spleen lymphocytes): 3-9%; increase in the spleen weight in comparison to the control values [1]: 21% |
| Na-salt of N-benzoyl-PGM [Benzoyl PGM] | 100% | – | 34.1 ± 9.56 | 114% | 113.4 ± 22.28 mg | relative increase | 138% | 142% | 282.1 | clearly expressed enhancing tendency | 95.7 ± 28.45 | effect upon the number of spleen lymphocytes (spleen lymphocytes): no effect; increase of PFC / overall PFC activity, significance (words) ([2]; listed as N-benzoyl): statistically significant difference; increase of PFC / overall PFC activity, significance (words) ([2]; listed as benzoyl): significant effect; involvement in the humoral immunity (immune response): more significantly involved |
| NA-salt of N-acetyl-PGM [Acetyl PGM] | 96% | 4-6% | 41.9 ± 5.66 | 106% | 112.3 ± 12.08 mg | – | 111% | 119% | 202.7 ± 91.97 | clearly expressed enhancing tendency | 85.8 ± 33.17 | – |
| Na-salt of N-pivaloyl-PGM [Pivaloyl PGM] | 94% | 4-6% | 42.9 ± 9.82 | 107% | 125.5 ± 19.44 mg | relative increase | 110% | 118% | 163.8 ± 52.95 | – | 76.4 ± 24.94 | – |
| Na-salt of N-capriloyl-PGM [Capriloyl PGM] | 119% | – | 46.1 ± 11.70 | 100% | 120.4 ± 12.36 mg | – | 159% | 126% | 154.2 ± 111.12 | – | 88.5 ± 75.95 | increase of the number of the spleen lymphocytes (spleen lymphocytes): 19%; effect on the cellular immune response (immune response): significant effect |
| CC(=O)NC1C(OC2C(CO)OC(O)C(NC(C)=O)C2OC(C)C(=O)NC(C)C(=O)NC(CCC(=O)NC(CCCC(N)C(=O)O)C(=O)NC(C)C(=O)NC(C)C(=O)O)C(N)=O)OC(CO)C(O)C1O (centres unmarked) [PGM, peptidoglycan monomer] | 122% and 87% and 113% and 94% and 93% and 102% and 90% | – | – | – | – | – | 159% and 139% and 119% and 102% and 100% and 105% and 112% and 135% | 128% and 116% and 111% and 96% and 102% and 118% and 150% | 156.1 ± 102.78 and 190.4 ± 79.53 and 117.1 ± 48.37 and 214.4 ± 95.61 and 163.6 ± 72.39 and 141.4 ± 40.57 and 219.1 ± 96.98 and 206.9 | – | – | solubility in organic solvents ([3]; organic solvents): insoluble; solubility in water ([3]; water): well water-soluble; Spleen weight, % (control = 100) ([1]; 10 mg/kg): 115% and 107% and 104% and 103% and 106% and 102%; antimetastatic activity [4]: antimetastatic activity; immunomodulating activity [5]: immunomodulating |
